# “And” between values parts separate entries of the source, which are not always exact repeats. Identical values can stand only once. Like-named read-outs stand apart in the source and are kept apart here.
# Key:
# [1] = system: Nalidixic acid resistant E. coli O157:H7; test: Reduction of E. coli on raw beef brisket, dip treatment; assay type: cell-based; details: for CFU/cm2 / CFU/ml / Log CFU/cm2: replicates
# From the text: Nalidixic acid resistant E. coli O157:H7 was used to evaluate the efficacy in treatment with performic acid composition on raw beef brisket according to the conditions shown in Table 32.
# [2] = system: Enterococcus; test: Bactericidal activity of PFA versus POAA; assay type: cell-based; details: E. hirae ATCC 10541, 5 minutes, dirty conditions, 20° C.
# From the text: (§1) Staphylococcus, Enterococcus and Pseudomonas pathogens were used to evaluate the micro efficacy of PFA in comparison to POAA.
# [3] = system: Pseudomonas; test: Bactericidal activity of PFA versus POAA; assay type: cell-based; details: P. aeruginosa ATCC 15442, 5 minutes, dirty conditions, 20° C.
# From the text: as §1
# [4] = system: Staphylococcus; test: Bactericidal activity of PFA versus POAA; assay type: cell-based; details: S. aureus ATCC 6538, 5 minutes, dirty conditions, 20° C.
# From the text: as §1
# [5] = system: L. monocytogenes (ATCC 19114, 19116 and 4594); test: Low temperature disinfectant efficacy, log reduction; assay type: cell-based; details: 4° C.; 1 minute contact exposure; FIG. 32
# Protocol: Micro efficacy of PFA according to the present invention was evaluated under low temperature, low oxygen conditions employing the formulation of Table 41.
# The log reduction of L. monocytogenes (ATCC 19114, 19116 and 4594) were evaluated at low temperature (4° C.) comparing peroxvacetic acid to the peroxyformic acid generated according to the formulation shown in Table 41. The results are shown in FIG. 32 comparing disinfectant efficacy after a 1 minute contact exposure to the disinfectants.
# As a result, the performic acid generated has a great fit for application in brewery plants. The exceptional antimicrobial efficacy of performic acid at low temperature meets the requirement of cold temperature environment of brewery operations, while common biocides including peroxycarboxylic acids such as peracetic acids will suffer the efficacy lose under low temperatures. In addition, formic acid that always coexists with performic acid is a very efficient acidulant, which will help prevent/dissolve beer stone, thus eliminate the additional acid wash. As a further benefit the performic acid composition has very high performic acid to H2O2 ratio, which practically eliminates the O2 that could potentially introduced to the liquid being processed (i.e. beer) and interfere with the organoleptic effects and negative taste effects.
# [6] = system: microbes in water sample (80% tap water 20% produced water); test: Kill performance (log reduction) in water sample, 5 min exposure; assay type: cell-based; details: exposure time 5 min
# From the text: Synergy examples range from pH 0 to 12 at varied concentrations. Synergistic activity is defined as a technical effect that exceeds the addition of the cumulative performance of the materials in formulation.
# As referred to in Table 8 the following commercially-available test substances were employed: POAA (15% POAA, 10% H2O2), PAA 1 (21% peracetic, 3.5% H2O2), POOA (0.5% POOA, 6.8% H2O2).
# [7] = system: microorganisms in produced water; test: Microbial efficacy by ATP concentration (AccuCount) in produced water; assay type: cell-based; details: PFA 5 ppm active, compounds 50 ppm product
# Protocol: Microbial efficacy of PFA alone (5 ppm active) or PFA (5 ppm active) in conjunction with the compounds (50 ppm product) listed in the Table 20 below and in FIG. 13 were tested by measuring the ATP concentration in the untreated and treated produced water samples (using AccuCount technology). Reductions in bacterial numbers were tabulated as % kill for each experiment. The results are represented in FIG. 13 and in Table 20.
# [8] = Performance of corrosion inhibitor in sea water and produced water systems (% protection); details: 200 ppm active performic acid, 50 ppm corrosion inhibitor (PFA: no inhibitor)
# Protocol: 200 ppm active of performic acid was added. 50 ppm of corrosion inhibitor was added for corrosion protection. % protection was plotted by comparison of the corrosion rate in the presence of corrosion inhibitor to the corrosion rate with no corrosion inhibitor addition (PFA or PFA-PW) as shown in Table 30.
# [9] = system: acid producing bacteria (APBs); test: Biocidal performance on treated produced water, bug bottles serial dilution; assay type: cell-based; details: PFA treatment of produced water
# Protocol: Treatment of produced water with performic acid was evaluated using performic acid compositions containing a corrosion inhibitor. As shown in FIG. 28 (grey scale) the lighter color […] in the water, whereas the darker shading indicates no growth. Untreated has E5 bacteria/mL; 0.5 ppm PFA treated has E3 bacteria/mL. The bacterial bug bottles are specific in supporting growth of acid producing bacteria (APBs). Growth of APB is indicated by a color change from dark to light color (pink to yellow). 1 mL of initial inoculum was diluted 10 times in subsequent bottles. Therefore each bottle indicates a El bacteria/mL. Based on the results observed by growth/no growth of bacteria it can be concluded that PFA treatment results in at least a reduction of 2 log (equivalent of E2 bacteria/mL) bacteria.
# [10] = system: Various pathogens; assay type: cell-based; details: for Result (Passing Requirement 5 log reduction): EN 13727
# [11] = 220 ppm POAA, pH 8.86, 10 minutes, raw beef brisket
# [12] = 180 ppm PFA, pH 8.76, 10 minutes, raw beef brisket
structure (smiles),measurement,setting,value
"CC(=O)OO [POAA, peroxyacetic acid, reference compound]",Average Log CFU/cm2,[1]; [11],2.98 Log CFU/cm2
same,Log reduction,[1]; [11],1.06
same,CFU/cm2,[1]; [11],1.20E+03 CFU/cm2 and 9.00E+02 CFU/cm2 and 8.00E+02 CFU/cm2
same,CFU/ml,[1]; [11],6.00E+02 CFU/ml and 4.50E+02 CFU/ml and 4.00E+02 CFU/ml
same,Log CFU/cm2,[1]; [11],3.08 Log CFU/cm2 and 2.95 Log CFU/cm2 and 2.90 Log CFU/cm2
same,Log reduction,"[1]; 220 ppm POAA, pH 8.86, dip for 10 minutes, ambient",1.06
same,Average CFU/mL,"[2]; 24.8 ppm POAA × 1.25, pH 6.73",>3.30E+05 CFU/mL
same,Log10 Growth,"[2]; 24.8 ppm POAA × 1.25, pH 6.73",>5.52
same,Average CFU/mL,"[2]; 37.6 ppm POAA × 1.25, pH 6.90",9.25E+03 CFU/mL
same,Log10 Growth,"[2]; 37.6 ppm POAA × 1.25, pH 6.90",3.97
same,Average CFU/mL,"[2]; 62.4 ppm POAA × 1.25, pH 6.98",<140 CFU/mL
same,Log10 Growth,"[2]; 62.4 ppm POAA × 1.25, pH 6.98",<2.15
same,Average CFU/mL,"[3]; 24.8 ppm POAA × 1.25, pH 6.73",<140 CFU/mL
same,Log10 Growth,"[3]; 24.8 ppm POAA × 1.25, pH 6.73",<2.15
same,Average CFU/mL,"[3]; 37.6 ppm POAA × 1.25, pH 6.90",<140 CFU/mL
same,Log10 Growth,"[3]; 37.6 ppm POAA × 1.25, pH 6.90",<2.15
same,Average CFU/mL,"[3]; 62.4 ppm POAA × 1.25, pH 6.98",<140 CFU/mL
same,Log10 Growth,"[3]; 62.4 ppm POAA × 1.25, pH 6.98",<2.15
same,Average CFU/mL,"[4]; 24.8 ppm POAA × 1.25, pH 6.73",1.77E+05 CFU/mL
same,Log10 Growth,"[4]; 24.8 ppm POAA × 1.25, pH 6.73",5.25
same,Average CFU/mL,"[4]; 37.6 ppm POAA × 1.25, pH 6.90",<140 CFU/mL
same,Log10 Growth,"[4]; 37.6 ppm POAA × 1.25, pH 6.90",<2.15
same,Average CFU/mL,"[4]; 62.4 ppm POAA × 1.25, pH 6.98",<140 CFU/mL
same,Log10 Growth,"[4]; 62.4 ppm POAA × 1.25, pH 6.98",<2.15
same,disinfectant efficacy at the lower temperature (in words),[5],significantly decreases
"O=COO [PFA, peroxyformic acid]",Log reduction,[6]; 2 ppm PFA,3.01
same,Log reduction,[6]; 8.5 ppm PFA,5.69
same,Log reduction,[6]; 10 ppm PFA,5.28
same,% Kill,[7],87.9%
same,"% Protection, 3 hrs after dosing",[8]; produced water (PW),−237.2%
same,"% Protection, 8 hrs after dosing",[8]; produced water (PW),−228.1%
same,"% Protection, Last hour of testing",[8]; produced water (PW),−261.2%
same,"% Protection, 3 hrs after dosing",[8]; sea water,−10666.2%
same,"% Protection, 8 hrs after dosing",[8]; sea water,−13447.5%
same,"% Protection, Last hour of testing",[8]; sea water,−14481.9%
same,reduction of bacteria,[9],≥ 2 log
same,Average Log CFU/cm2,[1]; [12],3.22 Log CFU/cm2
same,Log reduction,[1]; [12],0.83
same,CFU/cm2,[1]; [12],1.84E+03 CFU/cm2 and 1.42E+03 CFU/cm2 and 1.72E+03 CFU/cm2
same,CFU/ml,[1]; [12],9.20E+02 CFU/ml and 7.10E+02 CFU/ml and 8.60E+02 CFU/ml
same,Log CFU/cm2,[1]; [12],3.26 Log CFU/cm2 and 3.15 Log CFU/cm2 and 3.24 Log CFU/cm2
same,Average CFU/mL,"[2]; 20 ppm PFA × 1.25, pH 6.61",6.30E+03 CFU/mL
same,Log10 Growth,"[2]; 20 ppm PFA × 1.25, pH 6.61",3.80
same,Average CFU/mL,"[2]; 30 ppm PFA × 1.25, pH 6.74",2.15E+02 CFU/mL
same,Log10 Growth,"[2]; 30 ppm PFA × 1.25, pH 6.74",2.33
same,Average CFU/mL,"[2]; 50 ppm PFA × 1.25, pH 6.60",<140 CFU/mL
same,Log10 Growth,"[2]; 50 ppm PFA × 1.25, pH 6.60",<2.15
same,Average CFU/mL,"[3]; 20 ppm PFA × 1.25, pH 6.61",<140 CFU/mL
same,Log10 Growth,"[3]; 20 ppm PFA × 1.25, pH 6.61",<2.15
same,Average CFU/mL,"[3]; 30 ppm PFA × 1.25, pH 6.74",<140 CFU/mL
same,Log10 Growth,"[3]; 30 ppm PFA × 1.25, pH 6.74",<2.15
same,Average CFU/mL,"[3]; 50 ppm PFA × 1.25, pH 6.60",<140 CFU/mL
same,Log10 Growth,"[3]; 50 ppm PFA × 1.25, pH 6.60",<2.15
same,Average CFU/mL,"[4]; 20 ppm PFA × 1.25, pH 6.61",<140 CFU/mL
same,Log10 Growth,"[4]; 20 ppm PFA × 1.25, pH 6.61",<2.15
same,Average CFU/mL,"[4]; 30 ppm PFA × 1.25, pH 6.74",<140 CFU/mL
same,Log10 Growth,"[4]; 30 ppm PFA × 1.25, pH 6.74",<2.15
same,Average CFU/mL,"[4]; 50 ppm PFA × 1.25, pH 6.60",<140 CFU/mL
same,Log10 Growth,"[4]; 50 ppm PFA × 1.25, pH 6.60",<2.15
same,Result (Passing Requirement 4 log reduction),"[10]; EN 13624, Aspergillus brasiliensis ATCC 1604, 450 ppm PFA pH 6-7",PASS
same,Result (Passing Requirement 4 log reduction),"[10]; EN 13624, Canidia albicans ATCC 10231, 450 ppm PFA pH 6-7",PASS
same,Result (Passing Requirement 3 log reduction),"[10]; EN 13704, Bacillus subtilis ATCC 6633, 450 ppm PFA pH 6-7",PASS
same,Result (Passing Requirement 5 log reduction),"[10]; Enterococcus hirae ATCC 10541, 450 ppm PFA pH 6-7",PASS
same,Result (Passing Requirement 5 log reduction),"[10]; P. aeruginosa ATCC 15442, 450 ppm PFA pH 6-7",PASS
same,Result (Passing Requirement 5 log reduction),"[10]; Staph. Aureus ATCC 6538, 450 ppm PFA pH 6-7",PASS
same,Result (Passing Requirement 4 log reduction),[10]; pH 6,PASS
same,disinfectant efficacy at the lower temperature (in words),[5],does not decrease
